Assay results published in patent publication US6160008A, “Pharmaceutical compositions comprising S-alkylisothiouronium derivatives” (priority 1996, dated 2000).
Entries after “also recorded” stand apart in the source; their conditions may differ.

What was measured:
[1] = tested on: acute arterial hypotension, caused by the hexamethonium administration; assay: Acute arterial hypotension caused by hexamethonium (Table 5); format: in vivo, cats
Experimental: The influence of S-ethylisothiouronium diethylphosphate on the background of arterial hypotension caused by a known ganglion blocker-hexamethonium has been studied in cats. Hexamethonium was injected intra- venously at a dose of 10 mg/kg. Vagus and schiatic nerve stimulation was carried out by electrical pulsator with the above-threshold rectangular pulse current having a duration of 1 msec, irritation time of 10 sec, and frequency of 20 pulses/sec (peripheral section of the vagus nerve), and frequency of 300 pulses/sec (central end of the schiatic nerve).

arterial blood pressure = assay: Influence of single intravenous injection on arterial blood pressure, heart rate and respiratory rate in anesthetized cats (Table 1, FIGS. 1-10); format: in vivo; conditions: 5 mg/kg i.v.; for Hypertensive activity (increase of SAP): given as "> SAP by"
Experimental: Experiments were performed on 52 anesthetized (intraperitoneally with 45 mg/kg of sodium pentobarbital) cats of both genders with body mass of 2.8-4.2 kg. Arterial pressure was measured by a mercury pressure gauge; measurements were also performed by ECG. Simultaneously, the respiratory frequency was registered. The hypertensive effect was determined as percent increase relative to the initial level of systolic arterial pressure (SAP). The duration of observation was 1-3 hours; the heart rate (HR) was calculated on the basis of ECG.

α1-adrenoreceptors = conditions: cited from earlier work
[2] = tested on: acute arterial hypotension, caused by prazosin; assay: Acute arterial hypotension caused by prazosin (Table 3); format: in vivo, cats; conditions: prazosin alone 1 mg/kg i.v.
Experimental: It was of interest to study the influence of S-ethylisothiouronium diethylphosphate the in case of hypotension caused by the injection of a known α1-adreno blocker, namely prazosin. Prazosin was injected singly intravenously at a dose of 1 mg/kg.

[3] = tested on: increased oxygen pressure; conditions: cited from earlier work
[4] = tested on: mice exposed to an oxygen pressure of 3 atm; assay: Survival under oxygen pressure of 3 atm, mice (Table 15); format: in vivo, F1 (CBAx57B1); conditions: mice, 3 atm, 5 hours
Experimental: Animals were exposed to oxygen under increased pressure in a hyperbaric chamber <<Mana-2≤≤ for treatment of infants above 1 year, which was adjusted for the experiments on animals. The hyperbaric chamber design permitted to create excessive pressure up to 3 atm and to observe animal behavior from outside.
The experiments were performed on males of F1 (CBAx57B1) mice line and on males of Wistar rat line. Animals were placed in the hyperbaric chamber in plastic boxes and the atmospheric air was replaced by oxygen. The period of compression-decompression was 10 minutes. The exposure of the animals to an oxygen pressure of 3 atm during a period of 2 hours caused only some increase in their motion activity. Further staying of rats and mice in those conditions led to a decrease in the motion activity, to asphyxia with short periods of excitement and cramps. The death of some animals was registered after 2.5-3 hours, 50% after 4 hours, and 75% of mice and 100% of rats were dead after 5 hours.
When the influence of Difetur and Etyron was studied, the animals were exposed to an oxygen pressure of 3 atm during 5 hours if not otherwise specified. Preparations were injected 5-10 minutes before the session.

[5] = hexamethonium alone 10 mg/kg i.v., 2nd min
[6] = listed as S-isopropylisothiuronium metaphosphate
[7] = listed as S-isopropylisothiuronium isopropylphosphite
[8] = listed as S-ethylisothiuronium methylphosphate
[9] = listed as S-isobutylisothiuronium isobutylphosphate
[10] = listed as S-methylisothiuronium dimethylphosphate

C[N+](C)(C)CCCCCC[N+](C)(C)C [hexamethonium, reference compound]
AP after hexonium injection [1, 5]: 91.0 ± 10.0 mm Hg
HF after hexonium injection [1, 5]: 137.6 ± 13.4 per min.
AP decrease ([1]; hexamethonium alone, 2 minutes): 46%

CC(C)SC(=N)N [S-isopropylisothiouronium metaphosphate]
Duration of effect (arterial blood pressure): ≥ 2 h
Hypertensive effect in words (arterial blood pressure): slowly increases SAP
RR (influence on respiratory rate) (arterial blood pressure): does not influence RR
Time to achieve maximum effect (arterial blood pressure): 15 min
Hypertensive activity (increase of SAP) (arterial blood pressure; [6]): 27 mm Hg
Duration of effect (arterial blood pressure; [6]): 2 h
Hypertensive activity, % (increase relative to the initial level of SAP) (arterial blood pressure; [6]): 20.3%
Influence on HR (arterial blood pressure; [6]): Bradycardia
RR (influence on respiratory rate) (arterial blood pressure; [6]): Increases
Time to achieve maximum effect (arterial blood pressure; [6]): 15 min

CCCCSC(=N)N [S-butylisothiouronium dibutylphosphate, S-butylisothiouronium di-butylphosphate]
Duration of effect (arterial blood pressure): 1 h
Hypertensive activity, % (increase relative to the initial level of SAP) (arterial blood pressure): 5.6%
Hypertensive effect in words (arterial blood pressure): slightly increases arterial blood pressure
RR (influence on respiratory rate) (arterial blood pressure): No influence
Time to achieve maximum effect (arterial blood pressure): 30 min
Hypertensive activity (increase of SAP) (arterial blood pressure): 7 mm Hg
Duration of effect (arterial blood pressure; listed as S-butylisothiuronium dibutylphosphate): up to 1 hour

CC(C)SC(=N)N [S-isopropylisothiouronium isopropylphosphite]
Duration of effect (arterial blood pressure): at least 2 hour
Hypertensive activity, % (increase relative to the initial level of SAP) (arterial blood pressure): ~30%
Hypertensive effect in words (arterial blood pressure): one of the most active substances
Influence on HR (arterial blood pressure): Transient bradycardia
RR (influence on respiratory rate) (arterial blood pressure): does not influence RR
Time to achieve maximum effect (arterial blood pressure): second minute
Hypertensive activity (increase of SAP) (arterial blood pressure; [7]): 40 mm Hg
Duration of effect (arterial blood pressure; [7]): 2 h
Hypertensive activity, % (increase relative to the initial level of SAP) (arterial blood pressure; [7]): 28.8%
Influence on HR (arterial blood pressure; [7]): Bradycardia
RR (influence on respiratory rate) (arterial blood pressure; [7]): No influence
Time to achieve maximum effect (arterial blood pressure; [7]): 2 min

CNCC(O)c1cccc(O)c1.Cl (centres unmarked) [Mezaton, 1-(m-hydroxyphenyl)-2-methylaminoethanol hydrochloride]
Pharmacological action in words (α1-adrenoreceptors; in vivo, hydrochloride): selectively stimulates α1-adrenoreceptors; also recorded: practically does not have cardiostimulating effect
Duration of anti-hypotensive effect (α1-adrenoreceptors; single intravascular injection): approximately 20 minutes

CCSC(=N)N [S-ethylisothiouronium metaphosphate]
Duration of effect (arterial blood pressure): 1.5 h
Hypertensive activity, % (increase relative to the initial level of SAP) (arterial blood pressure): 15%
RR (influence on respiratory rate) (arterial blood pressure): does not influence RR
Time to achieve maximum effect (arterial blood pressure): 2 min
Hypertensive activity (increase of SAP) (arterial blood pressure): 25 mm Hg
Hypertensive activity (increase of SAP) (arterial blood pressure; [8]): 25 mm Hg
Duration of effect (arterial blood pressure; [8]): up to 1 hour
Hypertensive activity, % (increase relative to the initial level of SAP) (arterial blood pressure; [8]): 14.8%
Influence on HR (arterial blood pressure; [8]): Bradycardia
RR (influence on respiratory rate) (arterial blood pressure; [8]): No influence

COc1cc2nc(N3CCN(C(=O)c4ccco4)CC3)nc(N)c2cc1OC [prazosin, reference compound]
AP after prazosin ([2]; 5th min): 106.3 ± 2.4 mm Hg
HF after prazosin ([2]; 5th min): 156.8 ± 9.0 per min.
Respiratory contraction frequency after prazosin ([2]; 5th min): 13.6 ± 2.9 min⁻¹
AP decrease ([2]; 5th minute): 51 mm Hg

Br.CCSC(=N)N [Etyron, S-ethylisothiouronium bromide, reference compound]
Protective activity in words [3]: protective activity under increased oxygen pressure
Number of survived animals ([4]; 10 mg/kg): 70%
Number of survived animals ([4]; 20 mg/kg): 50%

CC(C)CSC(=N)N [S-isobutylisothiouronium isobutylphosphite]
Duration of effect (arterial blood pressure): about 2 hour
Hypertensive activity, % (increase relative to the initial level of SAP) (arterial blood pressure): 14.8%
Hypertensive effect in words (arterial blood pressure): moderate hypertensive effect
Influence on HR (arterial blood pressure): increasing HR
RR (influence on respiratory rate) (arterial blood pressure): increasing HR and RR
Time to achieve maximum effect (arterial blood pressure): 2 min
Hypertensive activity (increase of SAP) (arterial blood pressure): 22.6 mm Hg
Duration of effect (arterial blood pressure; [9]): 2 h
RR (influence on respiratory rate) (arterial blood pressure; [9]): Increases

CSC(=N)N [S-methylisothiouronium dimethylphosphate]
Duration of effect (arterial blood pressure): 1.5 h
Hypertensive activity, % (increase relative to the initial level of SAP) (arterial blood pressure): ~30%
Hypertensive activity (increase of SAP) (arterial blood pressure; [10]): 27.5 mm Hg
Duration of effect (arterial blood pressure; [10]): 1.5 h
Hypertensive activity, % (increase relative to the initial level of SAP) (arterial blood pressure; [10]): 20.8%
